From US20120165331A1, “Di/tri-aza-spiro-C9-C11alkanes” (priority 2010, published 2012)

Experiments:
human orexin 1 receptor [1] = target: T1, human orexin 1 receptor (Homo sapiens, UniProt O43613); test: Radioligand binding assay ([3H]-SB649868 competition), human orexin 1 receptor; details: radioligand [3H]-SB649868; read-out: Binding hOx1R Kd
T1 construct: expressed in transfected cells
T1 sequence (O43613 1-425): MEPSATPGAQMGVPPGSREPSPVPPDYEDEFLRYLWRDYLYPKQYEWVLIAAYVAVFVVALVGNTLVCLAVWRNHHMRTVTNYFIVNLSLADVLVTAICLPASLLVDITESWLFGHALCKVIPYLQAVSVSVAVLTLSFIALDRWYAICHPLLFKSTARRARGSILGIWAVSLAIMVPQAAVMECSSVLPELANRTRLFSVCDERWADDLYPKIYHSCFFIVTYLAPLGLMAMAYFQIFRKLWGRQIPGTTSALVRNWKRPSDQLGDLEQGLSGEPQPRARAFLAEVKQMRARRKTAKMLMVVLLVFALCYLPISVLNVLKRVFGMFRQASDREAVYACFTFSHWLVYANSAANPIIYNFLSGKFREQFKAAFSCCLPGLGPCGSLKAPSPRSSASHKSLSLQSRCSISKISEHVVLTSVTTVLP
Procedure: (§1) Radioligand Binding Assay
(§2) For crude cell membrane preparations, cells (CHO, Chinese hamster ovary or HEK, human embryonic kidney) expressing human orexin 1 or human orexin 2 receptors, were washed with HEPES (10 mM, pH 7.5), scraped off the culture plates with the same buffer, and centrifuged at 4° C. for 5 min at 2500×g. The cell pellet was either stored at −80° C. or used directly. Before the experiments, cell membranes were re-suspended in binding assay buffer (10 mM HEPES, 0.5% (w/v) bovine serum albumin, pH 7.5) by homogenisation with a Polytron homogeniser at 50 Hz for 20 s. Cell membranes were also used as made available by commercial providers.
(§3) Bound radioactivity was measured, and data were analysed with the program XLFIT or Graphpad Prism. Protein concentration was determined according to the Bradford/BioRad Protein Assay Kit.
(§4) In competition experiments, cell homogenates (150 μl) were incubated in assay buffer (10 mM HEPES, pH 7.5, 0.5% (w/v) bovine serum albumin, 5 mM MgCl2, 1 mMCaCl2, and tween 0.05%) for 1 h at room temperature with about 1 nM of the radioligand [^3H]-SB649868, 66 Ci/mmole, 50 μl), and with various concentrations of compounds of the invention (50 μl) in triplicates; non-specific binding was determined in the presence of almorexant (10 μM). Reactions were terminated by vacuum filtration, 3 washes of ice cold wash buffer (Tris-HCl pH 7.4/10 mM, with NaCl 154 mM). Competition data is expressed in Table 1 as Kd [μM].

human orexin 1 receptor [2] = target: T1, human orexin 1 receptor; test: Calcium accumulation in cells (FLIPR), antagonism of orexin A, human orexin 1 receptor; type: cell-based; details: for Ki: calcium accumulation, antagonism of orexin A, Cheng-Prusoff corrected, read-out: FLIPR hOx1R Ki; for inhibition at 10 µM: measured at a concentration of 10 μM of compound, read-out: FLIPR hOx1R % inhibition
human orexin 2 receptor [3] = target: T2, human orexin 2 receptor (Homo sapiens, UniProt O43614); test: Radioligand binding assay ([3H]-SB649868 competition), human orexin 2 receptor; details: radioligand [3H]-SB649868; read-out: Binding hOx2R Kd
T2 construct: expressed in transfected cells
T2 sequence (O43614 1-444): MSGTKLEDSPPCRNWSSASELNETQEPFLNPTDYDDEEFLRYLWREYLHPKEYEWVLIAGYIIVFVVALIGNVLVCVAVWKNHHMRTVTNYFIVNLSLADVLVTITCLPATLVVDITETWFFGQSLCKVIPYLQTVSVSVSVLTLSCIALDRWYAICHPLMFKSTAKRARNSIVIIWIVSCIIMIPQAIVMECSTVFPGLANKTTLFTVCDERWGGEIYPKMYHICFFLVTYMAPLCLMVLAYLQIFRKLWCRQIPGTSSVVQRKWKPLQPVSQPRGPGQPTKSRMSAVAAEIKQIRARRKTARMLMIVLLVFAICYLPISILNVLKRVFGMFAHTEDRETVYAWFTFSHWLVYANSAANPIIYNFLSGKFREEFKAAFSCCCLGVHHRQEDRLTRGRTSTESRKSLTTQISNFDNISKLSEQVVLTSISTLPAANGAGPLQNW
Procedure: as §1, §2, §3, §4

human orexin 2 receptor [4] = target: T2, human orexin 2 receptor; test: Calcium accumulation in cells (FLIPR), antagonism of orexin A, human orexin 2 receptor; type: cell-based; details: calcium accumulation, antagonism of orexin A, Cheng-Prusoff corrected; read-out: FLIPR hOx2R Ki

Compound: COc1cccc(-c2oc(C)nc2CN2CCNC3(CCN(c4nc(C)cc(C)n4)CC3)C2=O)c1 [Example 1.14, 9-(4,6-Dimethylpyrimidin-2-yl)-4-((5-(3-methoxyphenyl)-2-methyloxazol-4-yl)methyl)-1,4,9-triazaspiro[5.5] undecan-5-one]
- Kd (human orexin 1 receptor [1]): 445 nM
- Ki (human orexin 1 receptor [2]): 298 nM
- Kd (human orexin 2 receptor [3]): 22 nM
- Ki (human orexin 2 receptor [4]): 2 nM

Compound: COc1cccc(-c2oc(C)nc2CN2CCNC3(CCN(c4nccc(OC)n4)CC3)C2=O)c1 [Example 1.17, 4-((5-(3-Methoxyphenyl)-2-methyloxazol-4-yl)methyl)-9-(4-methoxypyrimidin-2-yl)-1,4,9-triazaspiro[5.5] undecan-5-one]
- Kd (human orexin 1 receptor [1]): 2350 nM
- Ki (human orexin 1 receptor [2]): 2090 nM
- Kd (human orexin 2 receptor [3]): 251 nM
- Ki (human orexin 2 receptor [4]): 92 nM

Compound: COc1cccc(-c2oc(C)nc2CN2CCNC3(CCN(c4nc(C)cc(OC)n4)CC3)C2=O)c1 [Example 1.18, 9-(4-Methoxy-6-methylpyrimidin-2-yl)-4-((5-(3-methoxyphenyl)-2-methyloxazol-4-yl)methyl)-1,4,9-triazaspiro[5.5] undecan-5-one]
- Kd (human orexin 1 receptor [1]): 219 nM
- Ki (human orexin 1 receptor [2]): 119 nM
- Kd (human orexin 2 receptor [3]): 23 nM
- Ki (human orexin 2 receptor [4]): 3 nM

Compound: COc1cccc(-c2sc(C)nc2CN2CCNC3(CCN(c4nc(C)cc(C)n4)CC3)C2=O)c1 [Example 1.24, 9-(4,6-Dimethyl-pyrimidin-2-yl)-4-((5-(3-methoxyphenyl)-2-methylthiazol-4-yl)methyl)-1,4,9-triazaspiro[5.5] undecan-5-one]
- Kd (human orexin 1 receptor [1]): 924 nM
- Ki (human orexin 1 receptor [2]): 766 nM
- Kd (human orexin 2 receptor [3]): 35 nM
- Ki (human orexin 2 receptor [4]): 10 nM

Compound: COc1cccc(-c2sc(C)nc2CN2CCNC3(CCN(c4nc(C)cc(OC)n4)CC3)C2=O)c1 [Example 1.26, 9-(4-Methoxy-6-methylpyrimidin-2-yl)-4-((5-(3-methoxyphenyl)-2-methylthiazol-4-yl)methyl)-1,4,9-triazaspiro[5.5] undecan-5-one]
- Kd (human orexin 1 receptor [1]): 352 nM
- Ki (human orexin 1 receptor [2]): 391 nM
- Kd (human orexin 2 receptor [3]): 49 nM
- Ki (human orexin 2 receptor [4]): 8 nM

Compound: COCc1cccc(-c2ocnc2CN2CCNC3(CCN(c4nc(C)cc(C)n4)CC3)C2=O)c1 [Example 1.27, 9-(4,6-Dimethyl-pyrimidin-2-yl)-4-((5-(3-(methoxymethyl)phenyl)oxazol-4-yl)methyl)-1,4,9-triazaspiro[5.5] undecan-5-one]
- Kd (human orexin 1 receptor [1]): 5140 nM
- inhibition at 10 µM (human orexin 1 receptor [2]): 34%
- Kd (human orexin 2 receptor [3]): 140 nM
- Ki (human orexin 2 receptor [4]): 94 nM

Compound: COCc1cccc(-c2ocnc2CN2CCNC3(CCN(c4nc(C)cc(OC)n4)CC3)C2=O)c1 [Example 1.29, 9-(4-Methoxy-6-methylpyrimidin-2-yl)-4-((5-(3-(methoxymethyl)phenyl)oxazol-4-yl)methyl)-1,4,9-triazaspiro[5.5] undecan-5-one]
- Kd (human orexin 1 receptor [1]): 1320 nM
- Ki (human orexin 1 receptor [2]): 1430 nM
- Kd (human orexin 2 receptor [3]): 100 nM
- Ki (human orexin 2 receptor [4]): 75 nM

Compound: COCc1cccc(-c2oc(C)nc2CN2CCNC3(CCN(c4nc(C)cc(C)n4)CC3)C2=O)c1 [Example 1.30, 9-(4,6-Dimethyl-pyrimidin-2-yl)-4-((5-(3-(methoxymethyl)phenyl)-2-methyl-oxazol-4-yl)methyl)-1,4,9-triazaspiro[5.5] undecan-5-one]
- Kd (human orexin 1 receptor [1]): 2140 nM
- inhibition at 10 µM (human orexin 1 receptor [2]): 51%
- Kd (human orexin 2 receptor [3]): 114 nM
- Ki (human orexin 2 receptor [4]): 29 nM

Compound: COc1cccc(-c2cn(C)nc2CN2CCNC3(CCN(c4nc(C)cc(C)n4)CC3)C2=O)c1 [Example 1.33, 9-(4,6-Dimethyl-pyrimidin-2-yl)-4-((4-(3-methoxyphenyl)-1-methyl-1H-pyrazol-3-yl)methyl)-1,4,9-triazaspiro[5.5] undecan-5-one]
- Kd (human orexin 1 receptor [1]): 1620 nM
- Ki (human orexin 1 receptor [2]): 1530 nM
- Kd (human orexin 2 receptor [3]): 42 nM
- Ki (human orexin 2 receptor [4]): 6 nM

Compound: COc1ccc2[nH]cc(CN3CCNC4(CCN(c5nc(C)cc(C)n5)CC4)C3=O)c2c1 [Example 1.34, 9-(4,6-Dimethyl-pyrimidin-2-yl)-4-((5-methoxy-1H-indol-3-yl)methyl)-1,4,9-triazaspiro[5.5] undecan-5-one]
- Kd (human orexin 1 receptor [1]): 234 nM
- Ki (human orexin 1 receptor [2]): 494 nM
- Kd (human orexin 2 receptor [3]): 4 nM
- Ki (human orexin 2 receptor [4]): 1 nM

Compound: COc1cccc(-c2n[nH]nc2CN2CCNC3(CCN(c4nc(C)cc(C)n4)CC3)C2=O)c1 [Example 1.39, 9-(4,6-Dimethyl-pyrimidin-2-yl)-4-((5-(3-methoxy-phenyl)-2H-1,2,3-triazol-4-yl)methyl)-1,4,9-triazaspiro[5.5] undecan-5-one]
- Kd (human orexin 1 receptor [1]): 231 nM
- Ki (human orexin 1 receptor [2]): 304 nM
- Kd (human orexin 2 receptor [3]): 13 nM
- Ki (human orexin 2 receptor [4]): 2 nM

Compound: Cc1cc(C#N)nc(N2CCC3(CC2)NCCN(Cc2c[nH]c4ccccc24)C3=O)n1 [Example 1.40, 2-(4-((1H-Indol-3-yl)methyl)-5-oxo-1,4,9-triazaspiro[5.5]undecan-9-yl)-6-methylpyrimidine-4-carbonitrile]
- Kd (human orexin 1 receptor [1]): 5300 nM
- Ki (human orexin 1 receptor [2]): 2810 nM
- Kd (human orexin 2 receptor [3]): 79 nM
- Ki (human orexin 2 receptor [4]): 20 nM

Compound: Cc1cc(C)nc(N2CCC3(CC2)NCCN(Cc2nn(C)cc2-c2cccc(C(F)(F)F)c2)C3=O)n1 [Example 1.41, 9-(4,6-Dimethyl-pyrimidin-2-yl)-4-((1-methyl-4-(3-(trifluoromethyl)phenyl)-1H-pyrazol-3-yl)methyl)-1,4,9-triazaspiro[5.5] undecan-5-one]
- Kd (human orexin 1 receptor [1]): 3170 nM
- Ki (human orexin 1 receptor [2]): 1580 nM
- Kd (human orexin 2 receptor [3]): 182 nM
- Ki (human orexin 2 receptor [4]): 16 nM

Compound: Cc1cc(C)nc(N2CCC3(CC2)NCCN(Cc2nn(C)cc2-c2cccc(Cl)c2)C3=O)n1 [Example 1.42, 4-((4-(3-Chlorophenyl)-1-methyl-1H-pyrazol-3-yl)methyl)-9-(4,6-dimethyl-pyrimidin-2-yl)-1,4,9-triazaspiro[5.5] undecan-5-one]
- Kd (human orexin 1 receptor [1]): 6490 nM
- Ki (human orexin 1 receptor [2]): 3280 nM
- Kd (human orexin 2 receptor [3]): 391 nM
- Ki (human orexin 2 receptor [4]): 83 nM

Compound: Cc1cc(C)nc(N2CCC3(CC2)NCCN(Cc2nn(C)cc2-c2cccc(OC(F)(F)F)c2)C3=O)n1 [Example 1.46, 9-(4,6-Dimethyl-pyrimidin-2-yl)-4-((1-methyl-4-(3-(trifluoro-methoxy)phenyl)-1H-pyrazol-3-yl)methyl)-1,4,9-triazaspiro[5.5] undecan-5-one]
- Kd (human orexin 1 receptor [1]): 3880 nM
- Ki (human orexin 1 receptor [2]): 2040 nM
- Kd (human orexin 2 receptor [3]): 91 nM
- Ki (human orexin 2 receptor [4]): 5 nM

Compound: Cc1cc(C)nc(N2CCC3(CC2)NCCN(Cc2nn(C)cc2-c2cccc(OC(C)C)c2)C3=O)n1 [Example 1.47, 9-(4,6-Dimethyl-pyrimidin-2-yl)-4-((4-(3-iso-propoxyphenyl)-1-methyl-1H-pyrazol-3-yl)methyl)-1,4,9-triazaspiro[5.5] undecan-5-one]
- Kd (human orexin 1 receptor [1]): 187 nM
- Ki (human orexin 1 receptor [2]): 135 nM
- Kd (human orexin 2 receptor [3]): 7 nM
- Ki (human orexin 2 receptor [4]): 1 nM

Compound: CC(=O)c1cccc(-c2cn(C)nc2CN2CCNC3(CCN(c4nc(C)cc(C)n4)CC3)C2=O)c1 [Example 1.48, 4-((4-(3-Acetylphenyl)-1-methyl-1H-pyrazol-3-yl)methyl)-9-(4,6-dimethyl-pyrimidin-2-yl)-1,4,9-triazaspiro[5.5] undecan-5-one]
- Kd (human orexin 1 receptor [1]): 2270 nM
- Ki (human orexin 1 receptor [2]): 2740 nM
- Kd (human orexin 2 receptor [3]): 99 nM
- Ki (human orexin 2 receptor [4]): 12 nM

Compound: Cc1cc(C)nc(N2CCC3(CC2)NCCN(Cc2nn(C)cc2-c2cccc(OCC4CC4)c2)C3=O)n1 [Example 1.52, 4-((4-(3-(Cyclo-propylmethoxy)phenyl)-1-methyl-1H-pyrazol-3-yl)methyl)-9-(4,6-dimethylpyrimidin-2-yl)-1,4,9-triazaspiro[5.5] undecan-5-one]
- Kd (human orexin 1 receptor [1]): 436 nM
- Ki (human orexin 1 receptor [2]): 286 nM
- Kd (human orexin 2 receptor [3]): 50 nM
- Ki (human orexin 2 receptor [4]): 2.8 nM
